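Tested at 5 concentrations; 48 h exposure; 96-well plates; endpoints linearly interpolated, else capped at highest concentration. Abbreviation: GI50, concentration required for 50% inhibition of growth.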 The source made the active and inactive calls. No stated cut-off is given here; in the data, active = GI50 up to about 1.1 µM and inactive = higher.
Legend:
Assay in all cases: NCI anticancer screen, dose series, 48 h
BT-549 = tested on: BT-549
NCI/ADR-RES = tested on: NCI/ADR-RES
HT-29 = tested on: HT-29
Hs-578T = tested on: Hs-578T
MCF7 = tested on: MCF7
MDA-MB-435 = tested on: MDA-MB-435
PC-3 = tested on: PC-3
TK-10 = tested on: TK-10
MDA-N = tested on: MDA-N
DU-145 = tested on: DU-145
HCC 2998 = tested on: HCC 2998
CAKI-1 = tested on: CAKI-1
EKVX = tested on: EKVX
MDA-MB-231 = tested on: MDA-MB-231
SF-295 = tested on: SF-295
U-251 = tested on: U-251
SR = tested on: SR
UACC-257 = tested on: UACC-257
K562 = tested on: K562
UACC-62 = tested on: UACC-62
HCT-15 = tested on: HCT-15
IGROV-1 = tested on: IGROV-1
SNB-75 = tested on: SNB-75
KM12 = tested on: KM12
HCT-116 = tested on: HCT-116
T47D = tested on: T47D
HOP-92 = tested on: HOP-92
NCI-H226 = tested on: NCI-H226
SK-MEL-2 = tested on: SK-MEL-2
SK-MEL-28 = tested on: SK-MEL-28
HOP-62 = tested on: HOP-62
SNB-19 = tested on: SNB-19
Malme-3M = tested on: Malme-3M
NCI-H23 = tested on: NCI-H23
HL-60 = tested on: HL-60
UO-31 = tested on: UO-31
CCRF-CEM = tested on: CCRF-CEM
RPMI-8226 = tested on: RPMI-8226
OVCAR-8 = tested on: OVCAR-8
RXF 393 = tested on: RXF 393
786-0 = tested on: 786-0
OVCAR-5 = tested on: OVCAR-5
MOLT-4 = tested on: MOLT-4
SN12C = tested on: SN12C
M14 = tested on: M14
SK-MEL-5 = tested on: SK-MEL-5
SW-620 = tested on: SW-620
COLO 205 = tested on: COLO 205
A549 = tested on: A549
SF-268 = tested on: SF-268
ACHN = tested on: ACHN
SK-OV-3 = tested on: SK-OV-3
NCI-H460 = tested on: NCI-H460
A498 = tested on: A498
NCI-H522 = tested on: NCI-H522
SF-539 = tested on: SF-539

Question: What does the source list for `N=C(N)SCCc1ccccn1`?
Answer: GI50 (BT-549): > 100 µM (inactive); GI50 (NCI/ADR-RES): > 100 µM (inactive); GI50 (HT-29): > 100 µM (inactive); GI50 (Hs-578T): > 100 µM (inactive); GI50 (MCF7): > 100 µM (inactive); GI50 (MDA-MB-435): > 100 µM (inactive); GI50 (PC-3): > 100 µM (inactive); GI50 (TK-10): > 100 µM (inactive); GI50 (MDA-N): > 100 µM (inactive); GI50 (DU-145): > 100 µM (inactive); GI50 (HCC 2998): > 100 µM (inactive); GI50 (CAKI-1): > 100 µM (inactive); GI50 (EKVX): 89.3 µM (inactive); GI50 (MDA-MB-231): 55.2 µM (inactive); GI50 (SF-295): > 100 µM (inactive); GI50 (U-251): 51.2 µM (inactive); GI50 (SR): > 100 µM (inactive); GI50 (UACC-257): > 100 µM (inactive); GI50 (K562): > 100 µM (inactive)

Question: For `CC(C)(C)OC(=O)NC(CCCCNC(=O)OCc1ccccc1)C(=O)NC(CCCCNC(=O)OCc1ccccc1)C(=O)ON1C(=O)CCC1=O` (stereo not drawn), which GI50 (UACC-62) is on record?
Answer: > 100 µM (inactive)

Question: And the GI50 (HCT-15)?
Answer: > 100 µM

Question: And the GI50 (IGROV-1)?
Answer: > 100 µM (inactive)

Question: What about the GI50 (BT-549) of the same compound?
Answer: > 100 µM (inactive)

Question: And the GI50 (SNB-75)?
Answer: > 100 µM (inactive)

Question: What about the GI50 (HT-29) of the same compound?
Answer: > 100 µM (inactive)

Question: And the GI50 (KM12)?
Answer: > 100 µM (inactive)

Question: And the GI50 (HCT-116)?
Answer: > 100 µM (inactive)

Question: What about the GI50 (Hs-578T) of the same compound?
Answer: > 100 µM (inactive)

Question: What about the GI50 (T47D) of the same compound?
Answer: > 100 µM (inactive)

Question: And the GI50 (MCF7)?
Answer: > 100 µM (inactive)

Question: And the GI50 (HOP-92)?
Answer: > 100 µM (inactive)

Question: And the GI50 (NCI-H226)?
Answer: > 100 µM (inactive)

Question: What about the GI50 (PC-3) of the same compound?
Answer: > 100 µM (inactive)

Question: What about the GI50 (TK-10) of the same compound?
Answer: > 100 µM (inactive)

Question: What about the GI50 (SK-MEL-2) of the same compound?
Answer: > 100 µM (inactive)

Question: What about the GI50 (MDA-N) of the same compound?
Answer: > 100 µM (inactive)

Question: And the GI50 (SK-MEL-28)?
Answer: > 100 µM (inactive)

Question: What about the GI50 (HOP-62) of the same compound?
Answer: > 100 µM (inactive)

Question: And the GI50 (SNB-19)?
Answer: > 100 µM (inactive)

Question: And the GI50 (HCC 2998)?
Answer: > 100 µM (inactive)

Question: And the GI50 (Malme-3M)?
Answer: > 100 µM (inactive)

Question: And the GI50 (NCI-H23)?
Answer: > 100 µM (inactive)

Question: And the GI50 (HL-60)?
Answer: > 100 µM (inactive)

Question: What about the GI50 (UO-31) of the same compound?
Answer: > 100 µM (inactive)

Question: What about the GI50 (CCRF-CEM) of the same compound?
Answer: > 100 µM (inactive)

Question: And the GI50 (RPMI-8226)?
Answer: > 100 µM (inactive)

Question: What about the GI50 (EKVX) of the same compound?
Answer: > 100 µM (inactive)

Question: And the GI50 (OVCAR-8)?
Answer: > 100 µM (inactive)

Question: And the GI50 (RXF 393)?
Answer: > 100 µM (inactive)

Question: And the GI50 (MDA-MB-231)?
Answer: > 100 µM (inactive)

Question: And the GI50 (786-0)?
Answer: > 100 µM (inactive)

Question: And the GI50 (OVCAR-5)?
Answer: > 100 µM (inactive)

Question: What about the GI50 (MOLT-4) of the same compound?
Answer: > 100 µM (inactive)

Question: What about the GI50 (U-251) of the same compound?
Answer: > 100 µM (inactive)

Question: What about the GI50 (SR) of the same compound?
Answer: > 100 µM (inactive)

Question: What about the GI50 (SN12C) of the same compound?
Answer: > 100 µM (inactive)

Question: What about the GI50 (M14) of the same compound?
Answer: > 100 µM (inactive)

Question: And the GI50 (SK-MEL-5)?
Answer: > 100 µM (inactive)

Question: What about the GI50 (SW-620) of the same compound?
Answer: > 100 µM (inactive)

Question: And the GI50 (UACC-257)?
Answer: > 100 µM (inactive)

Question: What about the GI50 (COLO 205) of the same compound?
Answer: > 100 µM (inactive)

Question: What about the GI50 (K562) of the same compound?
Answer: > 100 µM (inactive)

Question: What about the GI50 (A549) of the same compound?
Answer: > 100 µM (inactive)

Question: How did the GI50 (SF-268) turn out when `Cc1cccc(NS(=O)(=O)c2ccc3c(c2)OCCOCCOCCOCCO3)c1` was run?
Answer: > 100 µM (inactive)

Question: What about the GI50 (UACC-62) of the same compound?
Answer: > 100 µM (inactive)

Question: What about the GI50 (HCT-15) of the same compound?
Answer: > 100 µM

Question: What about the GI50 (IGROV-1) of the same compound?
Answer: > 100 µM (inactive)

Question: And the GI50 (BT-549)?
Answer: > 100 µM (inactive)

Question: And the GI50 (ACHN)?
Answer: > 100 µM (inactive)

Question: What about the GI50 (SNB-75) of the same compound?
Answer: 51.5 µM (inactive)

Question: What about the GI50 (HT-29) of the same compound?
Answer: > 100 µM (inactive)

Question: And the GI50 (KM12)?
Answer: > 100 µM (inactive)

Question: What about the GI50 (HCT-116) of the same compound?
Answer: > 100 µM (inactive)

Question: And the GI50 (Hs-578T)?
Answer: > 100 µM (inactive)

Question: And the GI50 (T47D)?
Answer: 43.5 µM (inactive)

Question: What about the GI50 (MCF7) of the same compound?
Answer: > 100 µM (inactive)

Question: And the GI50 (NCI-H226)?
Answer: > 100 µM (inactive)

Question: What about the GI50 (MDA-MB-435) of the same compound?
Answer: > 100 µM (inactive)

Question: And the GI50 (PC-3)?
Answer: > 100 µM (inactive)

Question: What about the GI50 (TK-10) of the same compound?
Answer: > 100 µM (inactive)

Question: What about the GI50 (MDA-N) of the same compound?
Answer: > 100 µM (inactive)

Question: What about the GI50 (SK-MEL-28) of the same compound?
Answer: > 100 µM (inactive)

Question: What about the GI50 (HOP-62) of the same compound?
Answer: > 100 µM (inactive)

Question: What about the GI50 (DU-145) of the same compound?
Answer: > 100 µM (inactive)

Question: And the GI50 (SNB-19)?
Answer: > 100 µM (inactive)

Question: And the GI50 (SK-OV-3)?
Answer: > 100 µM (inactive)

Question: What about the GI50 (HCC 2998) of the same compound?
Answer: > 100 µM (inactive)

Question: And the GI50 (Malme-3M)?
Answer: > 100 µM (inactive)

Question: And the GI50 (NCI-H460)?
Answer: > 100 µM (inactive)

Question: And the GI50 (NCI-H23)?
Answer: > 100 µM (inactive)

Question: And the GI50 (HL-60)?
Answer: > 100 µM (inactive)

Question: And the GI50 (A498)?
Answer: > 100 µM (inactive)

Question: What about the GI50 (UO-31) of the same compound?
Answer: > 100 µM (inactive)

Question: And the GI50 (NCI-H522)?
Answer: 16.1 µM (inactive)

Question: What about the GI50 (CAKI-1) of the same compound?
Answer: > 100 µM (inactive)

Question: And the GI50 (CCRF-CEM)?
Answer: > 100 µM (inactive)

Question: And the GI50 (RPMI-8226)?
Answer: > 100 µM (inactive)

Question: What about the GI50 (EKVX) of the same compound?
Answer: > 100 µM (inactive)

Question: And the GI50 (OVCAR-8)?
Answer: > 100 µM (inactive)

Question: What about the GI50 (MDA-MB-231) of the same compound?
Answer: > 100 µM (inactive)

Question: What about the GI50 (SF-295) of the same compound?
Answer: > 100 µM (inactive)

Question: What about the GI50 (786-0) of the same compound?
Answer: > 100 µM (inactive)

Question: And the GI50 (MOLT-4)?
Answer: 63 µM (inactive)

Question: And the GI50 (SR)?
Answer: 53 µM (inactive)

Question: And the GI50 (SN12C)?
Answer: > 100 µM (inactive)

Question: And the GI50 (M14)?
Answer: > 100 µM (inactive)

Question: And the GI50 (SK-MEL-5)?
Answer: > 100 µM (inactive)

Question: And the GI50 (SW-620)?
Answer: > 100 µM (inactive)

Question: And the GI50 (SF-539)?
Answer: > 100 µM (inactive)

Question: What about the GI50 (UACC-257) of the same compound?
Answer: > 100 µM (inactive)

Question: And the GI50 (COLO 205)?
Answer: > 100 µM (inactive)

Question: And the GI50 (K562)?
Answer: > 100 µM (inactive)

Question: What about the GI50 (A549) of the same compound?
Answer: > 100 µM (inactive)

From ChEMBL document CHEMBL1201862, “PubChem BioAssay data set” (2004)
